A word on the inhibition: it is how much of the control response was suppressed. As a reminder, the Ki is a dissociation constant, usually derived from enzyme kinetics or from competition with a known ligand. A lower Ki goes with higher affinity.

In series [1] the target is T1, D(2) dopamine receptor (Homo sapiens, UniProt P14416). Nature of the series: Agonist activity at human dopamine D2 receptor expressed in CHOK1 cells assessed as calcium mobilization at 1 uM by radiometric and luminescence plate counting method. It counts as functional, cell-based. To be noted: CHO-K1. In general terms: A change in cytosolic calcium serves as a functional read-out for many receptors and channels.
T1 sequence (P14416 whole entry): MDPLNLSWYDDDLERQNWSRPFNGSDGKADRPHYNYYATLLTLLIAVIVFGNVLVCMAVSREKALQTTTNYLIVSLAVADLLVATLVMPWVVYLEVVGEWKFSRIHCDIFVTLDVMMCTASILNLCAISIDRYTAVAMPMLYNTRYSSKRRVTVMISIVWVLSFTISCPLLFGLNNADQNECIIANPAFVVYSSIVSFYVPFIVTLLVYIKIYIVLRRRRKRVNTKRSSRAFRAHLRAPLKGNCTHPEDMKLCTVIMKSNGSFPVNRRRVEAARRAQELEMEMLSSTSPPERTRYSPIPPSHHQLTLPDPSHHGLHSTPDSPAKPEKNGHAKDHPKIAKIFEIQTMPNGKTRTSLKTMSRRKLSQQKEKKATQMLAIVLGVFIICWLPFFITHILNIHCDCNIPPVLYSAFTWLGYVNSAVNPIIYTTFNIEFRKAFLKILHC

The target of series [2] is T2, 5-hydroxytryptamine receptor 6 (Homo sapiens, UniProt P50406). Description: Agonist activity at human 5-HT6 receptor expressed in CHOK1 cells assessed as calcium mobilization at 1 uM by radiometric and luminescence plate counting method. It counts as functional, cell-based. To be noted: CHO-K1.
T2 sequence (P50406 whole entry): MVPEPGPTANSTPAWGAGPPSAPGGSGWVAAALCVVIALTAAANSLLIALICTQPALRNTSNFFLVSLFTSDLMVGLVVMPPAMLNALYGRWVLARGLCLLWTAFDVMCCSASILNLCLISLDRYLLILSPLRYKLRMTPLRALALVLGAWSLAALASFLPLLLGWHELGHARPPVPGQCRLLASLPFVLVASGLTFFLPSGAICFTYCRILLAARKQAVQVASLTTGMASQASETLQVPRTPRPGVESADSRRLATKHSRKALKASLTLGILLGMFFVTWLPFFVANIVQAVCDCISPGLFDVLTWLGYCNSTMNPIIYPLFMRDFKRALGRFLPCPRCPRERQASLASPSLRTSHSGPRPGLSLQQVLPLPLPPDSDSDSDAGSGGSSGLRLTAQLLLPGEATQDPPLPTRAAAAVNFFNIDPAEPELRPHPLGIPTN
For series [3], the target named is T1, D(2) dopamine receptor. Description: Antagonist activity at human dopamine D2 receptor expressed in CHOK1 cells assessed as inhibition of apomorphine-induced calcium mobilization at 1 uM by radiometric and luminescence plate counting method. It counts as functional, cell-based. To be noted: CHO-K1.
For a further series, the target named is hERG (KCNH2) (Homo sapiens, UniProt Q12809). Nature of the series: Inhibition of human ERG expressed in CHO cells assessed as reduction in channel current at holding potential of 0 mV at 1 uM by electrophysiological method. It counts as cell-based. Conditions: CHO cells expressing human ERG.
Chain of hERG (KCNH2) (Q12809 whole entry): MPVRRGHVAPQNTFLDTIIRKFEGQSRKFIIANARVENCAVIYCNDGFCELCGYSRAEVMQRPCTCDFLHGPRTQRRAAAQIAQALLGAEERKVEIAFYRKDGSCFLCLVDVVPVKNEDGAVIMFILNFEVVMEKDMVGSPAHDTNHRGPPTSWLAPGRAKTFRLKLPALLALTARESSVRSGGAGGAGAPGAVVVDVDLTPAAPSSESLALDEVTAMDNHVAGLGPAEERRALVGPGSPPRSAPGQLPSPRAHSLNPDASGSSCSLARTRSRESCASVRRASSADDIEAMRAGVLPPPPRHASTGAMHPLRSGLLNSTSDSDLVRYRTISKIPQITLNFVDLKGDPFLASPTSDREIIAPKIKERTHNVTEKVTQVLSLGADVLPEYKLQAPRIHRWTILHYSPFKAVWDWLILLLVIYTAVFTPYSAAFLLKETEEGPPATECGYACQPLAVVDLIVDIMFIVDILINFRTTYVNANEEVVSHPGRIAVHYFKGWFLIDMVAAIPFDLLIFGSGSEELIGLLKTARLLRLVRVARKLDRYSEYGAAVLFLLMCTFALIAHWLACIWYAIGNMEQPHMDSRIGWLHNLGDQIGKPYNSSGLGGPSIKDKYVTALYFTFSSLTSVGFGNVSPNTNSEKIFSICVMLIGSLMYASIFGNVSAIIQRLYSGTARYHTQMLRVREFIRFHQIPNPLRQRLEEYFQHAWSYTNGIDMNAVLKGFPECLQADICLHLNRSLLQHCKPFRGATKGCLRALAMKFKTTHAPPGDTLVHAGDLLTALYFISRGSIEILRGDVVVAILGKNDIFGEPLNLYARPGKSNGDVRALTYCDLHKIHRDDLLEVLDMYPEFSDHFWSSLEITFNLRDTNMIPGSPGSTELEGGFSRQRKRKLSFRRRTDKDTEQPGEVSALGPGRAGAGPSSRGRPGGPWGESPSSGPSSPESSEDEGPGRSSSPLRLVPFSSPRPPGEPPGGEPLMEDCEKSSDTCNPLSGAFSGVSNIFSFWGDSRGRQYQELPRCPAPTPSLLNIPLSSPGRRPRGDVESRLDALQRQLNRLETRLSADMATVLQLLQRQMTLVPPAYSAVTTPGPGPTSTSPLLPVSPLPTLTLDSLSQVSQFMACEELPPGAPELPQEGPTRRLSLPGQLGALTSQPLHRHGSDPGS
The target in series [4] is T3, Muscarinic acetylcholine receptor M1 (Homo sapiens) (UniProt P11229).
T3 sequence (whole entry): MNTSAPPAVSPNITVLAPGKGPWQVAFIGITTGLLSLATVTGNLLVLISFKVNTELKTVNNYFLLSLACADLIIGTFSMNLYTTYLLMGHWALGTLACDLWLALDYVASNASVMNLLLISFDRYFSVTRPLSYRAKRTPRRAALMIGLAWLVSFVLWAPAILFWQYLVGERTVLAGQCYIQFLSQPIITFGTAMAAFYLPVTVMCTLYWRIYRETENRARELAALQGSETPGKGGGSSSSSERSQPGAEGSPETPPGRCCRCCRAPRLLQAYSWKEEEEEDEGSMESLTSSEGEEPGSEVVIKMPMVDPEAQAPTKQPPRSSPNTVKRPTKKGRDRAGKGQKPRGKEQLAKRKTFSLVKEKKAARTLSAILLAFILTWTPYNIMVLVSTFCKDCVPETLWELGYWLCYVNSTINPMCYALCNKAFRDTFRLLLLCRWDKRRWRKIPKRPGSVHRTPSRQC
Nature of the series: Inhibition of muscarinic M1 receptor (unknown origin) assessed as reduction in control ligand binding at 1 uM.

Series [5] addresses T2, 5-hydroxytryptamine receptor 6. Description: biochemical.
The target of series [6] is T1, D(2) dopamine receptor. Description: biochemical.
Series [7] concerns Rattus norvegicus. Description: Anxiolytic activity in intraperitoneally dosed 3-months old Wistar rat by Vogel's conflict drinking test. To be noted: ip, read-out: MED. It is filed as functional.
Series [8] deals with Rattus norvegicus. Description: Anti-depressant-like activity in intraperitoneally dosed 3-months old Wistar rat by Porsolt's forced swim test. It counts as functional. Conditions: ip, read-out: MED.

For `O=C1CCc2ccc(OCCCCN3CCN(c4cccc5c4ccn5S(=O)(=O)c4ccccc4)CC3)cc2N1`, the inhibition on D(2) dopamine receptor [1] is 48%; in [2], 0%; on D(2) dopamine receptor [3], 100%; in [4], 37%. Also, the inhibition at 1 µM at hERG (KCNH2) stood at 13%. This molecule also showed an inhibition constant Ki in [5] of 0.4 nM.

In series [5], `NC(=O)c1ccccc1OCCCN1CCN(c2cccc3c2ccn3Cc2ccccc2F)CC1` showed a Ki of 23 nM. This lies in the double-digit nanomolar range.

As for `NC(=O)c1ccccc1OCCCNCCc1cn(S(=O)(=O)c2ccccc2)c2ccccc12`, the values for the Ki (on D(2) dopamine receptor [6]; in series [5]) were 180 nM and 62 nM, respectively.

With `NC(=O)c1ccccc1OCCCN1CCN(c2cccc3c2ccn3Cc2ccc(F)cc2)CC1`, the Ki at D(2) dopamine receptor [6] was determined as 44 nM; in series [5], 83 nM.

With `COc1ccc(NS(=O)(=O)c2sc3ccc(Cl)cc3c2C)cc1N1CCNCC1`, the minimal effective dose stood at 3 mg/kg in the series on Rattus norvegicus [7] and 10 mg/kg in the series with Rattus norvegicus [8].

Consider `NC(=O)c1ccccc1OCCCN1CC=C(c2cn(S(=O)(=O)c3ccccc3)c3ccccc23)CC1`, for which the figures for the Ki (at D(2) dopamine receptor [6]; in series [5]) were 160 nM and 33 nM, respectively.

As for `O=C1CCc2ccc(OCCCN3CCN(c4cccc5c4ccn5S(=O)(=O)c4ccccc4)CC3)cc2N1`, the values for the inhibition constant Ki (at D(2) dopamine receptor [6]; in series [5]) were 23 nM and 2.3 nM, respectively.

`O=C1CCc2ccc(OCCCCN3CC=C(c4cn(Cc5ccccc5)c5ccccc45)CC3)cc2N1`: the values for the Ki (at D(2) dopamine receptor [6]; in series [5]) were 73 nM and 22 nM, respectively.

With `NC(=O)c1ccccc1OCCCCN1CCN(c2cccc3c2ccn3S(=O)(=O)c2ccccc2)CC1`, the inhibitory constant (Ki) on D(2) dopamine receptor [6] was 78 nM; in series [5] it was 2.8 nM.

Take `O=C1CCc2ccc(OCCCCNCCc3cn(Cc4ccccc4)c4ccccc34)cc2N1`: the Ki at D(2) dopamine receptor [6] was 70 nM; in series [5], 150 nM.

In the case of `NC(=O)c1ccccc1OCCCN1CCN(c2cccc3c2ccn3Cc2ccccc2)CC1`, the Ki at D(2) dopamine receptor [6] was 95 nM; in series [5], 24 nM.

For `NC(=O)c1ccccc1OCCCN1CCC(c2cn(S(=O)(=O)c3ccccc3)c3ccccc23)CC1`, the values for the Ki (on D(2) dopamine receptor [6]; in [5]) were 62 nM and 57 nM, respectively.

For the molecule `O=C1CCc2ccc(OCCCCN3CCC(c4cn(S(=O)(=O)c5ccccc5)c5ccccc45)CC3)cc2N1`, the inhibition constant Ki came out at 14 nM on D(2) dopamine receptor [6] and 140 nM in series [5].

`O=C1CCc2ccc(OCCCCN3CCN(c4cccc5c4ccn5Cc4ccc(F)cc4)CC3)cc2N1`: the Ki on D(2) dopamine receptor [6] came to 12 nM; in [5] it was 100 nM.

In the case of `NC(=O)c1ccccc1OCCCN1CCC(c2cn(Cc3ccccc3)c3ccccc23)CC1`, the inhibitory constant (Ki) on D(2) dopamine receptor [6] amounted to 29 nM; in series [5] it was 490 nM.

Regarding `CC(C)Oc1ccccc1OCCCCN1CCN(c2cccc3c2ccn3S(=O)(=O)c2ccccc2)CC1`, the Ki on D(2) dopamine receptor [6] worked out at 120 nM; in [5], 11 nM.

As to `CC(C)Oc1ccccc1OCCCN1CCN(c2cccc3c2ccn3S(=O)(=O)c2ccccc2)CC1`, the Ki was determined as 110 nM at D(2) dopamine receptor [6] and 1.7 nM in series [5].

Turning to `O=S(=O)(c1ccccc1)n1ccc2c(N3CCN(CCCCOc4ccccc4)CC3)cccc21`, the inhibition constant Ki amounted to 62 nM at D(2) dopamine receptor [6] and 16 nM in series [5].

As to `O=S(=O)(c1ccccc1)n1ccc2c(N3CCN(CCCOc4ccccc4)CC3)cccc21`, the Ki at D(2) dopamine receptor [6] was determined as 290 nM; in [5], 7.6 nM.

As to `O=C1CCc2ccc(OCCCCN3CCC(c4cn(Cc5ccccc5)c5ccccc45)CC3)cc2N1`, the Ki at D(2) dopamine receptor [6] came out at 4.8 nM; in series [5] it was 150 nM.

For the molecule `NC(=O)c1ccccc1OCCCNCCc1cn(Cc2ccccc2)c2ccccc12`, the figures for the Ki (on D(2) dopamine receptor [6]; in series [5]) were 270 nM and 680 nM, respectively.

In the case of `O=S(=O)(c1ccccc1)n1ccc2c(N3CCN(CCCCOc4ccc(F)cc4)CC3)cccc21`, the results for the Ki (on D(2) dopamine receptor [6]; in series [5]) were 47 nM and 6.9 nM, respectively.

`O=C1CCc2ccc(OCCCCNCCc3cn(S(=O)(=O)c4ccccc4)c4ccccc34)cc2N1`: the Ki is 120 nM on D(2) dopamine receptor [6] and 52 nM in [5].

As for `O=C1CCc2ccc(OCCCCN3CCN(c4cccc5c4ccn5Cc4cccc(F)c4)CC3)cc2N1`, the inhibition was 39% on D(2) dopamine receptor [1], 0% in series [2], 99% at D(2) dopamine receptor [3] and 94% in series [4]. The inhibition at 1 µM at hERG (KCNH2) was found to be 18%. Besides, the results for the inhibition constant (Ki) (at D(2) dopamine receptor [6]; in series [5]) were 6.1 nM and 20 nM, respectively.

Regarding `NC(=O)c1ccccc1OCCCN1CCN(c2cccc3c2ccn3Cc2cccc(F)c2)CC1`, the inhibitory constant (Ki) at D(2) dopamine receptor [6] was determined as 45 nM; in series [5] it was 9.9 nM.

Consider `O=S(=O)(c1ccccc1)n1ccc2c(N3CCN(CCCOc4ccc5ccoc5c4)CC3)cccc21`, for which the Ki at D(2) dopamine receptor [6] came out at 220 nM; in series [5], 3.8 nM.

`O=C1CCc2ccc(OCCCCN3CCN(c4cccc5c4ccn5Cc4ccccc4)CC3)cc2N1`: the inhibition on D(2) dopamine receptor [1] was determined as 42%; in series [2] it was 0%; on D(2) dopamine receptor [3], 97%; in series [4], 99%. Further, the inhibition at 1 µM at hERG (KCNH2) is 14%. Moreover, the Ki at D(2) dopamine receptor [6] was 20 nM; in series [5] it was 13 nM.

For `O=C1CCc2ccc(OCCCCN3CCN(c4cccc5c4ccn5Cc4cccc(Cl)c4)CC3)cc2N1`, the inhibition at D(2) dopamine receptor [1] is 37%; in series [2], 0%; at D(2) dopamine receptor [3] it was 99%; in series [4] it was 78%. At hERG (KCNH2), the inhibition at 1 µM was 9%.

Turning to `O=S(=O)(c1ccccc1)n1ccc2c(N3CCN(CCCOc4ccc(F)cc4)CC3)cccc21`, the inhibitory constant (Ki) came out at 67 nM on D(2) dopamine receptor [6] and 5.4 nM in [5].

Regarding `NC(=O)c1ccccc1OCCCN1CC=C(c2cn(Cc3ccccc3)c3ccccc23)CC1`, the results for the Ki (at D(2) dopamine receptor [6]; in series [5]) were 31 nM and 590 nM, respectively.

`O=C1CCc2ccc(OCCCCN3CCN(c4cccc5c4ccn5Cc4ccccc4F)CC3)cc2N1`: the inhibitory constant (Ki) was 11 nM at D(2) dopamine receptor [6] and 45 nM in series [5].

As for `O=C1CCc2ccc(OCCCCN3CC=C(c4cn(S(=O)(=O)c5ccccc5)c5ccccc45)CC3)cc2N1`, the Ki is 40 nM on D(2) dopamine receptor [6] and 52 nM in series [5].

For `NC(=O)c1ccccc1OCCCN1CCN(c2cccc3c2ccn3Cc2cccc(Cl)c2)CC1`, the results for the Ki (on D(2) dopamine receptor [6]; in series [5]) were 76 nM and 12.6 nM, respectively.

The record behind these values is ChEMBL document CHEMBL3407464, “Novel 5-HT6 receptor antagonists/D2 receptor partial agonists targeting behavioral and psychological symptoms of dementia” (Eur J Med Chem, 2015).
